{
  "source": "patent US6989386B2",
  "about": "“Pharmaceutically active ornithine derivatives, ammonium salts thereof and methods of making same” (Dana-Farber Cancer Institute, priority 2002, dated 2006)",
  "key": {"[1]": {"biological_target": "T1, dihydrofolate reductase (DHFR) (Mus musculus, UniProt P00375)", "T1 sequence (P00375 1-187)": "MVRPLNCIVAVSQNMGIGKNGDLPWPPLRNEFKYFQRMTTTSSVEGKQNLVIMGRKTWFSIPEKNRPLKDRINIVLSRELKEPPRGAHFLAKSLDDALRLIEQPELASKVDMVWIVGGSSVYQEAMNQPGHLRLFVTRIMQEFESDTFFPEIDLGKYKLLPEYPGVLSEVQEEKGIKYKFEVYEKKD", "settings": "reported, Rosowsky et al., J. Med. Chem. 1986; cited from earlier work"}, "[2]": {"tested_on": "folylpolyglutamate synthetase (FPGS)", "settings": "reported, Rosowsky et al., J. Med. Chem. 1986; cited from earlier work"}, "[3]": {"tested_on": "cell growth in culture", "settings": "reported, Rosowsky et al., J. Med. Chem. 1986; cited from earlier work"}},
  "data": [
    {"smiles": "NCCC[C@H](NC(=O)c1ccc(NCc2cnc3nc(N)nc(N)c3n2)cc1)C(=O)O", "note": "[APA-L-Orn, N^α-(4-amino-4-deoxypteroyl)-L-ornithine]", "values": [
      {"measurement": "Inhibition of dihydrofolate reductase (DHFR)", "setting": "[1]", "value": "potent inhibitor"},
      {"measurement": "Inhibition of folylpolyglutamate synthetase (FPGS)", "setting": "[2]", "value": "potent inhibitor"},
      {"measurement": "Inhibition of cell growth in culture", "setting": "[3]", "value": "relatively inactive"}
    ]},
    {"smiles": "Nc1nc(N)c2nc(CNc3ccc(C(=O)N[C@@H](CCCNC(=O)c4ccccc4C(=O)O)C(=O)O)cc3)cnc2n1", "note": "[compound 7, N^α-(4-Amino-4-deoxypteroyl)-N^δ-hemiphthaloyl-L-ornithine]", "values": [
      {"measurement": "Stability when dissolved in dilute ammonium hydroxide", "setting": "dilute ammonium hydroxide solution", "value": "relatively stable"}
    ]},
    {"smiles": "N.N.Nc1nc(N)c2nc(CNc3ccc(C(=O)N[C@@H](CCCNC(=O)c4ccccc4C(=O)O)C(=O)O)cc3)cnc2n1", "note": "[compound 8, N^α-(4-Amino-4-deoxypteroyl)N^δ-hemiphthaloyl-L-ornithine ammonium salt]", "values": [
      {"measurement": "Product decomposition on lyophilization of the ammonium hydroxide solution", "setting": "lyophilization of dilute ammonium hydroxide solution", "value": "minimal"}
    ]}
  ]
}
